Values quoted from earlier work, collected in patent publication US5385929A, “[(Hydroxyphenylamino) carbonyl] pyrroles” (Warner-Lambert Company, priority 1994, dated 1995).

Tested on: biosynthesis of cholesterol
Details: qualitative; described in U.S. Pat. No. 5,273,995

Compound: CC(C)c1c(C(=O)Nc2ccccc2)c(-c2ccccc2)c(-c2ccc(F)cc2)n1CC[C@@H](O)C[C@@H](O)CC(=O)O [Compound of Patent 5,273,995 (open form), [R-(R*,R*)]-2-(4-fluorophenyl)-β,δ-dihydroxy-5-(1-methylethyl)-3-phenyl-4-[(phenylamino)carbonyl]-1H-pyrrole-1-heptanoic acid]
- activity as a hypocholesterolemic agent: particularly active as a hypocholesterolemic agent
